Common to all, as to type: functional
Experiment [1] deals with Mus musculus. As to the kind of experiment: Compound was evaluated for anticonvulsant activity against PTZ-induced tonic seizures at the 250 mg/kg dose; 3/5.
For experiment [2], the system named is Mus musculus. As to the kind of experiment: Compound was evaluated for anticonvulsant activity against PTZ-induced clonic seizures at the 250 mg/kg dose; 3/5.
Experiment [3] has as its system Mus musculus. The experiment in a line: Compound was evaluated for anticonvulsant activity against PTZ-induced clonic seizures at the 100 mg/kg dose; 5/5.
For experiment [4], the system named is Mus musculus. As to the kind of experiment: Compound was evaluated for anticonvulsant activity against PTZ-induced tonic seizures at the 500 mg/kg dose; 1/5.
Experiment [5] has as its system Mus musculus. The experiment in a line: Compound was evaluated for anticonvulsant activity against PTZ-induced tonic seizures at the 100 mg/kg dose; 5/5.
The subject of experiment [6] is Mus musculus. The experiment in a line: Compound was evaluated for anticonvulsant activity against PTZ-induced clonic seizures at the 500 mg/kg dose; 3/5.
The test system of experiment [7] is Mus musculus. The experiment in a line: Compound was evaluated for anticonvulsant activity against PTZ-induced tonic seizures at the 250 mg/kg dose; 4/4.
Experiment [8] has as its system Mus musculus. As to the kind of experiment: Compound was evaluated for anticonvulsant activity against PTZ-induced tonic seizures at the 62.5 mg/kg dose; 4/4.
Experiment [9] relates to Mus musculus. The experiment in a line: Compound was evaluated for anticonvulsant activity against PTZ-induced clonic seizures at the 250 mg/kg dose; 4/4.
Experiment [10] relates to Mus musculus. The experiment in a line: Compound was evaluated for anticonvulsant activity against PTZ-induced clonic seizures at 62.5 mg/kg dose; 4/4.
For experiment [11], the system named is Mus musculus. As to the kind of experiment: Compound was evaluated for anticonvulsant activity against PTZ-induced clonic seizures at the 125 mg/kg dose; 4/4.
The test system of experiment [12] is Mus musculus. The experiment in a line: Compound was evaluated for anticonvulsant activity against PTZ-induced tonic seizures at the 125 mg/kg dose; 4/4.

The record followed here is ChEMBL document CHEMBL1123241, “Alkyl-substituted thiolo-, thiono-, and dithio-gamma-butyrolactones: new classes of convulsant and anticonvulsant agents” (1986).

SMILES strings stand for the structures.

Consider `CCC1(C)CCOC1=S` (configuration not stated), for which the “Mean time to seizure” value in the experiment with Mus musculus [1] was 341 s; in the experiment on Mus musculus [2], 155 s.

In the case of `CCC1(C)CCSC1=S` (configuration not stated), the “Mean time to seizure” value in the experiment with Mus musculus [3] is on record as 87 s; in the experiment on Mus musculus [4] it was 1200 s; in the experiment on Mus musculus [5] it was 728 s; with Mus musculus [6] it was 218 s.

For the compound `CCC1(C)CCOC1=O` (configuration not stated), the “Mean time to seizure” value with Mus musculus [7] is reported as 844 s; in the experiment with Mus musculus [8], 1015 s; with Mus musculus [9], 163 s; in the experiment with Mus musculus [10] it was 150 s; with Mus musculus [11], 365 s; in the experiment with Mus musculus [12], 1078 s.
